US10188108B2, “Fused bicyclic heterocycle derivatives as pesticides” (BAYER CROPSCIENCE AKTIENGESELLSCHAFT, priority 2015, dated 2019)

Tests used:
Myzus persicae [1] = assay: Myzus persicae - spray test (Chinese cabbage leaf discs); type: in vivo; conditions: 500 g/ha, after 5-6 days
Protocol: • Solvent: 78 parts by weight of acetone • 1.5 parts by weight of dimethylformamide • Emulsifier: alkylaryl polyglycol ether
(§1) To produce a suitable preparation of active compound, 1 part by weight of active compound is dissolved using the stated parts by weight of solvent and made up with water containing an emulsifier concentration of 1000 ppm until the desired concentration is attained. To produce further test concentrations, the preparation is diluted with emulsifier-containing water.
Discs of Chinese cabbage leaves (Brassica pekinensis) infested by all stages of the green peach aphid (Myzus persicae) are sprayed with an active compound preparation of the desired concentration.
After 5-6 days, the efficacy in % is determined. 100% means that all the aphids have been killed; 0% means that no aphids have been killed.

Rhipicephalus sanguineus = Rhipicephalus sanguineus - in vitro contact tests with adult brown dog ticks; type: in vivo; conditions: 5 μg/cm^2 (=500 g/ha), after 48 h, adult dog ticks dead or moribund
Protocol: (§2) For the coating of the test tubes, 9 mg of active compound are first dissolved in 1 ml of acetone p.a. and 20 then diluted to the desired concentration with acetone p.a. 250 μl of the solution are distributed homogeneously on the inner walls and the base of a 25 ml test tube by turning and rocking on an orbital shaker (rocking rotation at 30 rpm for 2 h). With 900 ppm active compound solution and internal surface 44.7 cm^2, given homogeneous distribution, an area-based dose of 5 μg/cm^2 is achieved.
After the solvent has evaporated off, the tubes are populated with 5-10 adult dog ticks (Rhipicephalus sanguineus), sealed with a perforated plastic lid and incubated in a horizontal position in the dark at room temperature and ambient humidity. After 48 h, efficacy is determined. To this end, the ticks are knocked to the base of the tube and incubated on a hotplate at 45-50° C. for not more than 5 min. Ticks which remain motionless on the base or move in such an uncoordinated manner that they are unable to deliberately avoid the heat by climbing upwards are considered to be dead or moribund.
An efficacy of 100% means that all the ticks were dead or moribund. 0% efficacy means that none of the ticks were harmed.

[2] = log P by HPLC on a reversed-phase column (C 18), EEC Directive 79/831 Annex V.A8; type: physicochemical; conditions: 55° C.; for LOGP_HCOOH: acidic range, pH 2.7, 0.1% aqueous formic acid/acetonitrile; for LOGP_NEUTRAL: neutral range, pH 7.8, 0.001 molar aqueous ammonium hydrogencarbonate/acetonitrile
Protocol: The log P values are measured according to EEC Directive 79/831 Annex V.A8 by HPLC (high-performance liquid chromatography) on a reversed-phase column (C 18). Temperature: 55° C.
The LC-MS determination in the acidic range is effected at pH 2.7 using 0.1% aqueous formic acid and acetonitrile (contains 0.1% formic acid) as eluents; linear gradient from 10% acetonitrile to 95% acetonitrile. Called log P (HCOOH) in the table.
LC-MS determination in the neutral range is effected at pH 7.8 with 0.001 molar aqueous ammonium hydrogencarbonate solution and acetonitrile as eluents; linear gradient from 10% acetonitrile to 95% acetonitrile. Called log P (neutral) in the table.
Calibration is carried out using unbranched alkan-2-ones (having 3 to 16 carbon atoms) with known log P values (log P values determined on the basis of the retention times by linear interpolation between two successive alkanones).

Spodoptera frugiperda = Spodoptera frugiperda - spray test; type: in vivo; conditions: 500 g/ha, after 7 days, caterpillars on maize leaf discs
Protocol: (§3) • Solvent: 78.0 parts by weight of acetone • 1.5 parts by weight of dimethylformamide • Emulsifier: alkylaryl polyglycol ether
as §1
Leaf discs of maize (Zea mays) are sprayed with an active compound preparation of the desired concentration and, after drying, populated with caterpillars of the armyworm (Spodoptera frugiperda).
After 7 days, the efficacy in % is determined. 100% means that all the caterpillars have been killed; 0% means that no caterpillars have been killed.

Ctenocephalides felis [3] = assay: Ctenocephalides felis - in vitro contact tests with adult cat fleas; type: in vivo; conditions: 5 μg/cm^2 (=500 g/ha), after 48 h, adult cat fleas dead or moribund
Protocol: as §2, with “and” for “and 20”
After the solvent has evaporated off, the tubes are populated with 5-10 adult cat fleas (Ctenocephalides felis), sealed with a perforated plastic lid and incubated in a horizontal position at room temperature and ambient humidity. After 48 h, efficacy is determined. To this end, the test tubes are stood upright and the fleas are knocked to the base of the tube. Fleas which remain motionless at the base or move in an uncoordinated manner are considered to be dead or moribund.
100% efficacy means that all the fleas were dead or moribund. 0% efficacy means that no fleas were harmed.

Lucilia cuprina = Lucilia cuprina test; type: in vivo; conditions: 100 ppm, after 2 days, L1 larvae
Protocol: • Solvent: dimethyl sulphoxide To produce a suitable preparation of active compound, 10 mg of active compound are mixed with 0.5 ml of dimethyl sulphoxide, and the concentrate is diluted with water to the desired concentration. About 20 L1 larvae of the Australian sheep blowfly (Lucilia cuprina) are transferred into a test vessel containing minced horsemeat and the active compound preparation of the desired concentration. After 2 days, the kill in % is determined. 100% means that all the larvae have been killed; 0% means that no larvae have been killed.

Phaedon cochleariae = Phaedon cochleariae - spray test; type: in vivo; conditions: 500 g/ha, after 7 days, larvae on Chinese cabbage leaf discs
Protocol: as §3, §1
After 7 days, the efficacy in % is determined. 100% means that all the beetle larvae have been killed; 0% means that no beetle larvae have been killed.

Myzus persicae [4] = assay: Myzus persicae spray test (bell pepper plants); type: in vivo; conditions: 100 ppm, after 6 days
Protocol: • Solvent: 14 parts by weight of dimethylformamide • Emulsifier: alkylaryl polyglycol ether
as §1, with “water. If the addition of ammonium salts or/and penetrants is required, these are each added in a concentration of 1000 ppm to the formulation solution.” for “water.”
Bell pepper plants (Capsicum annuum) severely infested with the green peach aphid (Myzus persicae) are treated by spraying with the active compound preparation in the desired concentration.
After 6 days, the kill in % is determined. 100% means that all of the aphids have been killed; 0% means that none of the aphids have been killed.

Haemonchus contortus = Haemonchus contortus test; type: in vivo; conditions: 20 ppm, after 5 days, larvae
Protocol: • Solvent: Dimethyl Sulphoxide To produce a suitable preparation of active compound, 10 mg of active compound are mixed with 0.5 ml of dimethyl sulphoxide and the concentrate is diluted with “Ringer's solution” to the desired concentration. Vessels containing the active compound preparation of the desired concentration are populated with about 40 larvae of the red stomach worm (Haemonchus contortus). After 5 days, the kill in % is determined. 100% means that all the larvae have been killed; 0% means that none of the larvae have been killed.

Ctenocephalides felis [5] = assay: Ctenocephalides felis - oral test; type: in vivo; conditions: 100 ppm in citrated cattle blood, after 2 days, adult cat fleas
Protocol: • Solvent: dimethyl sulphoxide To produce a suitable preparation of active compound, 10 mg of active compound are mixed with 0.5 ml of dimethyl sulphoxide. Dilution with citrated cattle blood gives the desired concentration. About 20 unfed adult cat fleas (Ctenocephalides felis) are placed into a chamber which is closed at the top and bottom with gauze. A metal cylinder whose bottom end is closed with parafilm is placed onto the chamber. The cylinder contains the blood/active compound preparation, which can be imbibed by the fleas through the parafilm membrane. After 2 days, the kill in % is determined. 100% means that all of the fleas have been killed; 0% means that none of the fleas have been killed.

Tetranychus urticae = Tetranychus urticae - spray test, OP-resistant; type: in vivo; conditions: 500 g/ha, after 6 days, bean leaf discs
Protocol: as §3, §1
Discs of bean leaves (Phaseolus vulgaris) infested with all stages of the greenhouse red spider mite (Tetranychus urticae) are sprayed with an active compound preparation of the desired concentration.
After 6 days, the efficacy in % is determined. 100% means that all the spider mites have been killed; 0% means that no spider mites have been killed.

Musca domestica = Musca domestica test; type: in vivo; conditions: after 2 days, adult houseflies
Protocol: • Solvent: dimethyl sulphoxide To produce a suitable preparation of active compound, 10 mg of active compound are mixed with 0.5 ml of dimethyl sulphoxide, and the concentrate is diluted with water to the desired concentration. Vessels containing a sponge treated with sugar solution and the active compound preparation of the desired concentration are populated with 10 adult houseflies (Musca domestica). After 2 days, the kill in % is determined. 100% means that all of the flies have been killed; 0% means that none of the flies have been killed.

Meloidogyne incognita = Meloidogyne incognita test; type: in vivo; conditions: 20 ppm, after 14 days, formation of galls on lettuce roots
Protocol: • Solvent: 125.0 parts by weight of acetone To produce a suitable preparation of active compound, 1 part by weight of active compound is mixed with the stated amount of solvent and the concentrate is diluted with water to the desired concentration. Vessels are filled with sand, active compound solution, an egg/larvae suspension of the southern root-knot nematode (Meloidogyne incognita) and lettuce seeds. The lettuce seeds germinate and the plants develop. The galls develop on the roots. After 14 days, the nematicidal efficacy in % is determined by the formation of galls. 100% means that no galls were found; 0% means that the number of galls on the treated plants corresponds to the untreated control.

Boophilus microplus = Boophilus microplus - injection test; type: in vivo; conditions: 20 μg/animal injected, engorged adult female cattle ticks, laying of fertile eggs after 7 days
Protocol: • Solvent: dimethyl sulphoxide
To produce a suitable preparation of active compound, 10 mg of active compound are mixed with 0.5 ml of solvent and the concentrate is diluted with solvent to the desired concentration.
1 μl of the active compound solution is injected into the abdomen of 5 engorged adult female cattle ticks (Boophilus microplus). The animals are transferred into dishes and kept in a climate-controlled room.
Efficacy is assessed after 7 days by laying of fertile eggs. Eggs which are not visibly fertile are stored in a climate-controlled cabinet until the larvae hatch after about 42 days. An efficacy of 100% means that none of the ticks has laid any fertile eggs; 0% means that all the eggs are fertile.

Question: Which results are given for `CCS(=O)(=O)c1c(-c2nc3cc(C(F)(F)F)ccc3n2C)nc2ccc(C)cn12` [Example I-35]?
Answer: efficacy (Myzus persicae [1]): 90%; efficacy (Rhipicephalus sanguineus): 80%; LOGP_HCOOH [2]: 2.98; efficacy (Spodoptera frugiperda): 100%; efficacy (Ctenocephalides felis [3]): 100%

Question: Which results are given for `CCS(=O)(=O)c1c(-c2nc3cc(C(F)(F)F)ccc3n2C)nc2ccccn12` [Example I-10]?
Answer: efficacy (kill) (Lucilia cuprina): 100%; LOGP_HCOOH [2]: 2.70; LOGP_NEUTRAL [2]: 2.64; efficacy (Phaedon cochleariae): 100%; efficacy (kill) (Myzus persicae [4]): 100%; efficacy (Spodoptera frugiperda): 100%

Question: With `CCS(=O)(=O)c1c(-c2nc3cc(C(F)(F)F)cnc3n2C)nc2ccccn12` [Example I-59] as the compound, how does the efficacy (Myzus persicae [1]) read?
Answer: 90%

Question: And the “efficacy (kill)” value (Haemonchus contortus)?
Answer: 80%

Question: What about the “efficacy (kill)” value (Lucilia cuprina) of the same compound?
Answer: 100%

Question: What about the “efficacy (kill)” value (Ctenocephalides felis [5]) of the same compound?
Answer: 80%

Question: And the efficacy (Rhipicephalus sanguineus)?
Answer: 100%

Question: And the LOGP_HCOOH [2]?
Answer: 2.58

Question: And the LOGP_NEUTRAL [2]?
Answer: 2.49

Question: What about the efficacy (Phaedon cochleariae) of the same compound?
Answer: 100%

Question: What about the efficacy (Spodoptera frugiperda) of the same compound?
Answer: 100%

Question: And the efficacy (Tetranychus urticae)?
Answer: 90%

Question: What about the efficacy (Ctenocephalides felis [3]) of the same compound?
Answer: 100%

Question: What about the “efficacy (kill)” value (Musca domestica; 20 ppm) of the same compound?
Answer: 80%

Question: Which results are given for `CCSc1c(-c2nc3cc(C(F)(F)F)cnc3n2C)nc2ccccn12` [Example I-52]?
Answer: LOGP_HCOOH [2]: 3.43; LOGP_NEUTRAL [2]: 3.39; efficacy (Phaedon cochleariae): 100%; nematicidal efficacy (Meloidogyne incognita): 100%

Question: With `CC[S+]([O-])c1c(-c2nc3cc(C(F)(F)F)ncc3n2C)nc2cc(C(F)(F)F)ccn12` (stereo not drawn) [Example I-18] as the compound, how does the “efficacy (kill)” value (Lucilia cuprina) read?
Answer: 100%

Question: And the “efficacy (kill)” value (Ctenocephalides felis [5])?
Answer: 100%

Question: And the LOGP_HCOOH [2]?
Answer: 3.29

Question: And the LOGP_NEUTRAL [2]?
Answer: 3.25

Question: What about the efficacy (Phaedon cochleariae) of the same compound?
Answer: 100%

Question: What about the efficacy (Spodoptera frugiperda) of the same compound?
Answer: 100%

Question: And the efficacy (Ctenocephalides felis [3])?
Answer: 100%

Question: What about the efficacy (Boophilus microplus) of the same compound?
Answer: 95%

Question: And the “efficacy (kill)” value (Musca domestica; 4 ppm)?
Answer: 95%
